Experimental data taken from patent US11565998B2, “Succinate prodrug, compositions containing the succinate prodrug and uses thereof” (ABLIVA AB, priority 2019, dated 2023).
Values after ≈ are worked out from the molar mass of the structure shown.

Experiments:
[1] = Aqueous formulations of Compound 1 (water, PBS, saline), concentration by HPLC; format: physicochemical; conditions: thermodynamic from solid
[2] = Solubility of batches of different crystallinity; format: physicochemical; conditions: HPLC-grade water, water, thermodynamic from solid, mainly amorphous material (as worded, refers to Example 10); read-out: aqueous solubility
Method: Two batches of Compound 1 were generated with different crystallinity. Batch 2 had higher crystallinity than Batch 3, which is regarded as having a higher degree of amorphous Compound 1-Batch 2 is therefore regarded as a more crystalline batch, whereas Batch 3 is regarded as a more amorphous batch. The methods used are discussed in this document.
A sample of the more amorphous Compound 1 batch 3 was added to PBS or water to a final concentration of 258 mg/mL and sonicated for 10 minutes, then shaken for 30 minutes.
A sample of the more crystalline Compound 1 batch 2 was added to HPLC-grade water (Fisher) to a final concentration of 30 mg/mL and sonicated for 10 minutes, then shaken for 30 minutes.
A sample of the more crystalline Compound 1 batch 2 was added to HPLC-grade water (Fisher) to a final concentration of 52 mg/mL and sonicated for 20 minutes, then shaken for 1 hour.
A sample of the more crystalline Compound 1 batch 2 was added to HPLC-grade water (Fisher) to a final concentration of […] and sonicated for 20 minutes, then shaken for 1.5 hours.

[3] = Mineral instability (inorganic salts in water); format: physicochemical; conditions: for Percentage of Compound 1 remaining compared to T = 0: 1 mg/ml, room temperature
Method: Compound 1 Batch 14 (2-3 mg) was dissolved in water for injection at room temperature (WFI) (1 mg/ml) containing different sources of minerals commonly found in tap water (with different accompanying counter ions to be able to distinguish differences between the effects of cation or anion) and samples were taken at different time intervals for HPLC analysis.
Mineral sources used in the form of inorganic salts:
CuCl2, CaCl2), NiSO4, CoCl2, NH4Cl, MnCl2, NaF, NaNO3, CuSO4, Ca(NO3)2, AlSO4, CaCO3, (NH4)2CO3.

[4] = Solubility in aqueous formulations in comparison to other succinate prodrugs; format: physicochemical; conditions: thermodynamic from solid
Method: Solubility of Compound 1 in aqueous formulations in comparison to other succinate prodrugs was assessed by dissolving solid material in aqueous formulations and measuring the quantity in solution by HPLC (−MS). […] In many cases the max solubility of other prodrugs was lower than 100 uM. See Table 21 for example solubility data in PBS pH7.4 for other succinate prodrugs.

[5] = system: microsomes (Sekisui XenoTech); test: Succinate release on incubation with microsomes (LCMS); format: in vitro ADME; conditions: for Compound 1 detected by LCMS: microsomes 0.5 mg/mL, NADPH, malonate
Method: In brief, a stock of Compound 1 Batch 12 was prepared in 50/50 DMSO/MeCN (200 mM, ×200). This mixture was then diluted 1 in 10 into microsome buffer (20 mM, ×20) consisting of K2HPO4 (Sigma Aldrich, 13.9 g/L, anhydrous), KH2PO4 (Sigma Aldrich, 2.72 g/L, anhydrous), MgCl2.6H2O (Fisher, 1.02 g/L) and EDTA (Sigma Aldrich, 0.375 g/L) dissolved in HPLC grade water. A 200 mM malonic acid (Sigma Aldrich) stock was then prepared in microsome buffer (200 mM, ×20). A 20 mM NADPH stock was also prepared in microsome buffer (20 mM, ×10). A stock of microsomes (Sekisui XenoTech, 0.625 mg/ml) was prepared in a 7 ml vial. Samples were prepared for each timepoint (T=0, 5, 15, 60 mins) as follows: 80 μL microsome stock (0.5 mg/mL final concentration), 5 μL of Compound stock ([…]), 5 μL of malonate stock (10 mM final concentration). The T=0 sample was quenched by adding 100 μL MeOH. Reaction of all timepoints was then initiated with addition of 10 μL NADPH stock (2 mM final concentration). At each timepoint, the reaction was terminated by the addition of 100 μL MeOH. Samples were shaken for 1 min, placed on ice for 10 min, then centrifuged at 3000 rpm for 10 minutes. The supernatant was then analysed by LCMS.

COC(=O)CCC(=O)SCCNC(C)=O [Compound 1, Methyl 3-[(2-acetylaminoethylthio)carbonyl]propionate]
solubility ([1]; aqueous buffer, pH 7.4, aqueous media tested, room temperature (20-25° C.), read-out: aqueous solubility): ≥ 300 mg/mL
solubility ([1]; water and aqueous systems, water, read-out: solubility): > 500 mg/mL
solubility ([1]; water and aqueous systems, water, read-out: solubility (molar equivalent)): ~2100 mM
solubility at 1.5 h [2]: 850 mg/mL (≈ 3640 mM)
Percentage of Compound 1 remaining compared to T = 0 ([3]; (NH4)2CO3 in water, batch 14, day 0): 100%
Percentage of Compound 1 remaining compared to T = 0 ([3]; (NH4)2CO3 in water, batch 14, day 7): 91.3%
Percentage of Compound 1 remaining compared to T = 0 ([3]; (NH4)2CO3 in water, batch 14, day 14): 87.4%
Percentage of Compound 1 remaining compared to T = 0 ([3]; AlSO4 in water, batch 14, day 0): 100%
Percentage of Compound 1 remaining compared to T = 0 ([3]; AlSO4 in water, batch 14, day 7): 99.8%
Percentage of Compound 1 remaining compared to T = 0 ([3]; AlSO4 in water, batch 14, day 14): 100%
Percentage of Compound 1 remaining compared to T = 0 ([3]; Ca(NO3)2 in water, batch 14, day 0): 100%
Percentage of Compound 1 remaining compared to T = 0 ([3]; Ca(NO3)2 in water, batch 14, day 7): 99.4%
Percentage of Compound 1 remaining compared to T = 0 ([3]; Ca(NO3)2 in water, batch 14, day 14): 98.9%
Percentage of Compound 1 remaining compared to T = 0 ([3]; CaCO3 in water, batch 14, day 0): 100%
Percentage of Compound 1 remaining compared to T = 0 ([3]; CaCO3 in water, batch 14, day 7): 79.5%
Percentage of Compound 1 remaining compared to T = 0 ([3]; CaCO3 in water, batch 14, day 14): 66.0%
Percentage of Compound 1 remaining compared to T = 0 ([3]; CaCl2 in water, batch 14, day 0): 100%
Percentage of Compound 1 remaining compared to T = 0 ([3]; CaCl2 in water, batch 14, day 7): 100%
Percentage of Compound 1 remaining compared to T = 0 ([3]; CaCl2 in water, batch 14, day 14): 97.9%
Percentage of Compound 1 remaining compared to T = 0 ([3]; CoCl2 in water, batch 14, day 0): 100%
Percentage of Compound 1 remaining compared to T = 0 ([3]; CoCl2 in water, batch 14, day 7): 101%
Percentage of Compound 1 remaining compared to T = 0 ([3]; CoCl2 in water, batch 14, day 14): 101%
Percentage of Compound 1 remaining compared to T = 0 ([3]; CuCl2 in water, batch 14, day 0): 100%
Percentage of Compound 1 remaining compared to T = 0 ([3]; CuCl2 in water, batch 14, day 7): 99.5%
Percentage of Compound 1 remaining compared to T = 0 ([3]; CuCl2 in water, batch 14, day 14): 98.3%
Percentage of Compound 1 remaining compared to T = 0 ([3]; CuSO4 in water, batch 14, day 0): 100%
Percentage of Compound 1 remaining compared to T = 0 ([3]; CuSO4 in water, batch 14, day 7): 100%
Percentage of Compound 1 remaining compared to T = 0 ([3]; CuSO4 in water, batch 14, day 14): 99.4%
Percentage of Compound 1 remaining compared to T = 0 ([3]; MnCl2 in water, batch 14, day 0): 100%
Percentage of Compound 1 remaining compared to T = 0 ([3]; MnCl2 in water, batch 14, day 7): 98.9%
Percentage of Compound 1 remaining compared to T = 0 ([3]; MnCl2 in water, batch 14, day 14): 99.2%
Percentage of Compound 1 remaining compared to T = 0 ([3]; NH4Cl in water, batch 14, day 0): 100%
Percentage of Compound 1 remaining compared to T = 0 ([3]; NH4Cl in water, batch 14, day 7): 101%
Percentage of Compound 1 remaining compared to T = 0 ([3]; NH4Cl in water, batch 14, day 14): 99.8%
Percentage of Compound 1 remaining compared to T = 0 ([3]; NaF in water, batch 14, day 0): 100%
Percentage of Compound 1 remaining compared to T = 0 ([3]; NaF in water, batch 14, day 7): 101%
Percentage of Compound 1 remaining compared to T = 0 ([3]; NaF in water, batch 14, day 14): 100%
Percentage of Compound 1 remaining compared to T = 0 ([3]; NaNO3 in water, batch 14, day 0): 100%
Percentage of Compound 1 remaining compared to T = 0 ([3]; NaNO3 in water, batch 14, day 7): 99.2%
Percentage of Compound 1 remaining compared to T = 0 ([3]; NaNO3 in water, batch 14, day 14): 99.4%
Percentage of Compound 1 remaining compared to T = 0 ([3]; NiSO4 in water, batch 14, day 0): 100%
Percentage of Compound 1 remaining compared to T = 0 ([3]; NiSO4 in water, batch 14, day 7): 98.4%
Percentage of Compound 1 remaining compared to T = 0 ([3]; NiSO4 in water, batch 14, day 14): 99.1%
Percentage of Compound 1 remaining compared to T = 0 ([3]; WFl, batch 14, day 0): 100%
Percentage of Compound 1 remaining compared to T = 0 ([3]; WFl, batch 14, day 7): 98.7%
Percentage of Compound 1 remaining compared to T = 0 ([3]; WFl, batch 14, day 14): 97.7%
degradation in aqueous solution with carbonate ions ([3]; vs other mineral salts): degrades more rapidly
solubility ([4]; 0.9% saline, saline or isotonic): > 500 mg/mL
solubility ([4]; aqueous buffer, PBS (pH 7.4)): 190 mg/mL
solubility ([4]; pH 7.4, aqueous buffer, PBS pH7.4): > 100 µM
solubility ([4]; water): > 350 mg/mL
succinic acid release ([5]; incubated with microsomes): releases succinic acid over time
Compound 1 detected by LCMS ([5]; batch 12, 0 min): 0.934 mM
Compound 1 detected by LCMS ([5]; batch 12, 5 min): 0.688 mM
Compound 1 detected by LCMS ([5]; batch 12, 15 min): 0.388 mM
Compound 1 detected by LCMS ([5]; batch 12, 60 min): 0.080 mM
